The values that follow come from ChEMBL document CHEMBL1150254, “Dihydroxystyrene metabolites from an association of the sponges Poecillastra wondoensis and Jaspis sp” (J Nat Prod, 2008).

Active and inactive are the calls of the source. The rule behind the calls is not given here.

In assay [1] the target is Isocitrate lyase (Candida albicans, UniProt Q9P8Q7). As to the kind of experiment: Inhibition of Candida albicans isocitrate lyase.
The nature of assay [2]: Inhibition of Staphylococcus aureus sortase A.
Assay [3] has as its system K562. Briefly: Antitumor activity against human K562 cells. It counts as functional, cell-based.
In assay [4] the test system is A549. As to the kind of experiment: Antitumor activity against human A549 cells. In kind it is functional, cell-based.

Sequence of Isocitrate lyase (Q9P8Q7 whole entry): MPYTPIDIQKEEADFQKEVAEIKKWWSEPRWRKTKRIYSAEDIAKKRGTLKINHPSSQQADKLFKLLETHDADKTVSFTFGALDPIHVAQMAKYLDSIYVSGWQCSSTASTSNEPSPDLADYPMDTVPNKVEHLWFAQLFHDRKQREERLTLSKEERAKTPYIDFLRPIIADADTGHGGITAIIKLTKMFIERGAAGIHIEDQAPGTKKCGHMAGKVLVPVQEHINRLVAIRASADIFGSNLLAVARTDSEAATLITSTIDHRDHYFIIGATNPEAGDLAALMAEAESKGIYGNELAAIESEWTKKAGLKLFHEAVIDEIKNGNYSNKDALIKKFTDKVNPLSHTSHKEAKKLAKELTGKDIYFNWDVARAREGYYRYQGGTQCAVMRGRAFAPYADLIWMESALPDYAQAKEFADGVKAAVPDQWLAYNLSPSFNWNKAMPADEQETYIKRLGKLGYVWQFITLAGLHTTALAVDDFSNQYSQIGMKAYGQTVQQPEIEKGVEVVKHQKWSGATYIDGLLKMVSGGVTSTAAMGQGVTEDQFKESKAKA

For `O=S(=O)([O-])O/C=C/c1ccc(O)c(O)c1.[Na+]` [JASPISIN], the IC50 (commonly the midpoint of a concentration-inhibition curve) in assay [1] is above 787 µM; in assay [2], 14.6 µg/mL.

For `CN(C)C(=N)N.O=S(=O)(O)O/C=C/c1ccc2c(c1)OC(C(O)c1ccc(O)c(O)c1)O2` (centres undefined) [listing 1 of 2 here], the results for the IC50 in assay [1] and in assay [2] were above 426 µM and 82.4 µg/mL, respectively.

Consider `O=S(=O)([O-])O/C=C/c1ccc(OC2Oc3ccc(/C=C/OS(=O)(=O)[O-])cc3OC2c2ccc(O)c(O)c2)c(O)c1.[Na+].[Na+]` (centres undefined), for which the IC50 is 271 µM in assay [1] and 163.5 µg/mL in assay [2].

In the case of `O=S(=O)([O-])O/C=C/c1ccc2c(c1)OC(c1ccc(O)c(O)c1)C(OS(=O)(=O)[O-])O2.[Na+].[Na+]` (centres undefined), the IC50 is 341 µM in assay [1] and above 200 µg/mL in assay [2].

As to `O=S(=O)([O-])O/C=C\c1ccc(O)c(O)c1.[Na+]` [ISOJASPISIN], the figures for the IC50 in assay [1] and in assay [2] were above 787 µM and 34.2 µg/mL, respectively.

Regarding `CN(C)C(=N)N.CN(C)C(=N)N.O=S(=O)(O)O/C=C/c1ccc(OC2Oc3ccc(/C=C/OS(=O)(=O)O)cc3OC2c2ccc(O)c(O)c2)c(O)c1` (centres undefined) [listing 1 of 2 here], the result in assay [3] and in assay [4] was inactive.

With `CN(C)CCc1cn(C(c2ccc(O)c(O)c2)C2Oc3ccc(/C=C/OS(=O)(=O)[O-])cc3O2)cn1.Cl.[Na+]` (mixture of isomers), the IC50 in assay [1] was above 356 µM; in assay [2], above 200 µg/mL.

With `CN(C)C(=N)N.CN(C)C(=N)N.O=S(=O)(O)O/C=C/c1ccc(OC2Oc3ccc(/C=C/OS(=O)(=O)O)cc3OC2c2ccc(O)c(O)c2)c(O)c1` (centres undefined) [listing 2 of 2 here], the IC50 in assay [1] is above 259 µM; in assay [2], above 200 µg/mL.

For the molecule `CN(C)CCc1cn(C(c2ccc(O)c(O)c2)C2Oc3ccc(/C=C\OS(=O)(=O)[O-])cc3O2)cn1.Cl.[Na+]` (centres undefined), the IC50 was 164 µM in assay [1] and 68.3 µg/mL in assay [2].

Regarding `O=S(=O)([O-])O/C=C/c1ccc2c(c1)OC(C(O)c1ccc(O)c(O)c1)O2.[Na+]` (centres undefined), the IC50 is 306 µM in assay [1] and above 200 µg/mL in assay [2].

For the molecule `O=S(=O)(O)O/C=C/c1ccc(OC2Oc3ccc(/C=C/OS(=O)(=O)O)cc3OC2c2ccc(O)c(O)c2)c(O)c1` (centres undefined), the result in assay [3] and in assay [4] was inactive.

Take `C=C(CC(=O)O)C(=O)O` [ITACONATE]: it took 44.6 µM to reach half-maximal inhibition in assay [1] (IC50).

On to `CN(C)CCc1cn(C(c2ccc(O)c(O)c2)C2Oc3ccc(/C=C\OS(=O)(=O)[O-])cc3O2)cn1.[Na+]` (centres undefined), for which the IC50 in assay [1] is 91.3 µM; in assay [2], above 200 µg/mL.

For the molecule `O=S(=O)(O)O/C=C/c1ccc2c(c1)OC(C(O)c1ccc(O)c(O)c1)O2` (centres undefined), the result in assay [3] and in assay [4] was inactive.

For `CN(C)CCc1cn(C(c2ccc(O)c(O)c2)C2Oc3ccc(/C=C\OS(=O)(=O)O)cc3O2)cn1` (centres undefined), the result in assay [3] and in assay [4] was inactive.

Turning to `CN(C)C(=N)N.O=S(=O)(O)O/C=C/c1ccc2c(c1)OC(C(O)c1ccc(O)c(O)c1)O2` (centres undefined) [listing 2 of 2 here], the outcome in assay [3] and in assay [4] was inactive.

For the molecule `COC(OC)C(OC)c1ccc(O)c(O)c1` (centres undefined), the IC50 in assay [1] was 126 µM; in assay [2], above 200 µg/mL.

Turning to `CN(C)CCc1cn(C(c2ccc(O)c(O)c2)C2Oc3ccc(/C=C/OS(=O)(=O)[O-])cc3O2)cn1.[Na+]` (centres undefined), the IC50 was above 381 µM in assay [1] and above 200 µg/mL in assay [2].

Turning to `O=S(=O)([O-])O/C=C/c1ccc(OC2Oc3cc(/C=C/OS(=O)(=O)[O-])ccc3OC2c2ccc(O)c(O)c2)c(O)c1.[Na+].[Na+]` (centres undefined), the results for the IC50 in assay [1] and in assay [2] were 64.2 µM and above 200 µg/mL, respectively. In addition, the result in assay [3] and in assay [4] was inactive.
